Assay results as given in patent US11390597B2, “Salt and solid state forms of escitalopram” (priority 2017, dated 2022).

Tests used:
[1] = Comparative pharmacokinetics of escitalopram salts, IV and SC administration in rats; type: in vivo; conditions: Sprague dawley rats, single IV dose 1 mg/kg or SC dose 5 mg/kg, blood analyzed for escitalopram
Protocol: Escitalopram salt solutions are prepared for intravenous (IV) and/or subcutaneous (SC) administration as follows: A 1 mg/kg solution of escitalopram oxalate (Ox-Esc) is prepared for IV administration at 1 mL/kg in 10% DMSO, 30% Solutol® (polyoxyethylated 12-hydroxystearic acid), 60% PBS.
A 1 mg/kg solution of escitalopram pamoate (P-Esc) is prepared for IV administration 1 mL/kg in 10% DMSO, 30% Solutol®, 60% PBS, and for SC administration 200 uL of 5 mg/kg in DMSO.
(§1) The pharmacokinetics of IV administered escitalopram oxalate are determined as follows. […] Blood is collected from rats post dose in EDTA K2 tubes in a staggered design (cohort 1: 0 min, 30 min, 4 hr, 24 hr; cohort 2: 5 min, 1 hr, 8 hr, 36 hr; cohort 3: 15 min, 2 hr, 12 hr, 48 hr) and analyzed for escitalopram.
as §1, with “pamoate” for “oxalate”
The pharmacokinetics of SC administered escitalopram pamoate are determined as follows. […] Blood is collected from rats post dose in EDTA K2 tubes in a staggered design (cohort 1: 0 min, 1 hr, 8 hr, 48 hr; cohort 2: 5 min, 2 hr, 24 hr, 72 hr; cohort 3: 30 min, 4 hr, 36 hr, 96 hr) and analyzed for escitalopram. […]

[2] = Treatment of human subjects with escitalopram gentisate composition; type: in vivo; conditions: human subject afflicted with a neuropsychiatric disorder, periodic administration (IV, oral, subcutaneous)
Description: Periodic administration is meant to include inter alia IV, oral and subcutaneous administration.

CN(C)CCCC1(c2ccc(F)cc2)OCc2cc(C#N)ccc21.O=C(O)c1cc(O)ccc1O (centres unmarked) [escitalopram gentisate]
pharmacokinetic profile compared with pamoate and oxalate salts [1]: distinct from those of the pamoate and oxalate salts | reducing or eliminating the symptoms of the neuropsychiatric disorder [2]: clinically meaningful advantage in reducing or eliminating the symptoms
